The results in this text go back to paper PMC8474119, “Discovery and SAR Evolution of Pyrazole Azabicyclo[3.2.1]octane Sulfonamides as a Novel Class of Non-Covalent N-Acylethanolamine-Hydrolyzing Acid Amidase (NAAA) Inhibitors for Oral Administration” (Journal of Medicinal Chemistry, 2021).

The target in this assay is T1, h-NAAA (Homo sapiens, UniProt Q02083).
T1 construct: made in house; host or cells: HEK-293 cells stably overexpressing human NAAA; enzyme-enriched (lysosomal) lysate
T1 sequence (Q02083 29-125 limits assumed): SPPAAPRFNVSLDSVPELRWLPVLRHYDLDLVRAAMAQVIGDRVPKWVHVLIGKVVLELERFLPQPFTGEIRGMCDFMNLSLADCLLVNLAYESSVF
T1 sequence (Q02083 126-359 limits assumed): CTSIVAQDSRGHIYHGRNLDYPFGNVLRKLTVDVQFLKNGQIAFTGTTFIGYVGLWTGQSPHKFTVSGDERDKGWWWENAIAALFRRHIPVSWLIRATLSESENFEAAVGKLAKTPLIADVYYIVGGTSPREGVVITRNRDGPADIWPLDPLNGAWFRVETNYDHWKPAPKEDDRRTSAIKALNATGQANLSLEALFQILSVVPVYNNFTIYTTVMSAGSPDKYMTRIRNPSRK
Kind of assay: Fluorogenic human-NAAA assay (h-NAAA, fluo.). The settings on record: h-NAAA (fluo.); for IC50: mean ± SD (n ≥ 3), n.a.: not active @50 μM (<10% inhibition). Type of assay: biochemical. As for the experimental part: Human recombinant proteins were obtained from HEK-293 stable overexpressing human NAAA, AC, and FAAH-1 cell lines, respectively. Cells were grown in Dulbecco’s modified Eagle medium (DMEM) containing 10% FBS, 1% glutamine, 1 mM sodium pyruvate, and 500 μg/mL geneticin (G418). To obtain a high-density cell proliferation, h-NAAA-HEK-293 cells were grown in BelloCell-500 bottle, a compact bioreactor. On the contrary, h-AC and h-FAAH-1-HEK-293 cells were grown in 150 mm dishes and scraped off with cold PBS 1× pH 7.4 at 80% confluence. Cell pellets were collected and stored at −80 °C until protein preparation.
HEK-293 cells stably transfected with the human NAAA or human AC coding sequences were used as the enzyme source. Cells were suspended in 20 mM Tris-HCl (pH 7.4) with 0.32 M sucrose, sonicated, and centrifuged at 800g for 30 min at 4 °C. Supernatants were then centrifuged at 12,000g for 30 min at 4 °C. Pellets were resuspended in PBS buffer (pH 7.4) and subjected to three freeze-thaw cycles at −80 °C. The suspension was finally centrifuged at 105,000g for 1 h at 4 °C, supernatants were collected, protein concentration was measured, and samples were aliquoted and stored at −80 °C until use.
The assay was run in 96-well microplates (Black OptiPlate-96 F; PerkinElmer, Massachusetts, USA), in a total reaction volume of 200 μL. h-NAAA protein preparation (4 μg) was preincubated for 30 min with various concentrations of test compounds or vehicle control (DMSO 5%) in 100 mM citrate/phosphate buffer (pH 4.5) containing 3.0 mM DTT, 0.1% NP40, 0.05% BSA, and 150 mM NaCl. The background (no activity) samples were prepared using assay buffer without h-NAAA and DMSO (5%). N-(4-methyl-2-oxo-chromen-7-yl)-hexadecanamide (PAMCA)[60] was used as a substrate (2 μM) and the reaction was carried out for 50 min at 37 °C. Fluorescence was measured with EnVision 2014 Multilabel Reader (PerkinElmer, Massachusetts, USA) using an excitation wavelength of 355 nm and an emission of 460 nm. IC50 values were calculated by non-linear regression analysis of log[concentration]/response curves generated with mean replicate values using a four-parameter Hill equation curve fitting with GraphPad Prism 5 (GraphPad Software Inc., CA, USA).

As usually defined, the IC50 is the point on the concentration scale where inhibition reaches its midpoint. A high value points to weaker potency. In turn, `Cc1n[nH]c(C)c1S(=O)(=O)N1[C@@H]2CC[C@H]1C[C@H](Oc1ccccc1)C2` [Compound 32, (1R,3s,5S)-8-((3,5-Dimethyl-1H-pyrazol-4-yl)sulfonyl)-3-phenoxy-8-azabicyclo[3.2.1]octane] returned an IC50 of 655 ± 45 nM.
Regarding `Cc1n[nH]c(C)c1S(=O)(=O)N1[C@@H]2CC[C@H]1C[C@@H](Oc1ccc(CCC(C)C)cc1)C2` [Compound 42, (1R,3r,5S)-8-((3,5-Dimethyl-1H-pyrazol-4-yl)sulfonyl)-3-(4-isopentylphenoxy)-8-azabicyclo[3.2.1]octane], inhibition was half-maximal at 114 ± 10 nM (IC50).
For the compound `Cc1cnn(C)c1S(=O)(=O)N1CCC(Oc2cnccn2)CC1` [Compound 6, 2-((1-((1,4-Dimethyl-1H-pyrazol-5-yl)sulfonyl)piperidin-4-yl)oxy)pyrazine], the “h-NAAA inhibitory activity, in words” value is listed as “complete loss of inhibitory effect”.
